Laboratory results taken from US9345700B2, “Compositions and methods useful for treating diseases” (Eutropics Pharmaceuticals, Inc., priority 2011, dated 2016).
“Also recorded” adds a separate entry of the source.

Experiments:
[1] = tested on: SUDHL-6; experiment: In situ mitochondrial cytochrome c release assay, semi-permeabilized SUDHL-6; type: cell-based, human; conditions: 20 uM; BAX/BAK-functional cell line
Source text: (§1) The on-target activity of compound II-19 was validated. Changes in mitochondrial integrity were observed utilizing anti-cytochrome c conjugated to Alexa488 (BD). When the mitochondria are intact, they retain cytochrome c and have bright, punctate staining with the antibody whereas cells with compromised mitochondrial integrity will lose cytochrome c and will not stain with the antibody. This can be observed by microscopy as well as measured by a shift in fluorescence on the FL1 channel of a flow cytometer.
(§2) The selective response of mitochondria in semi-permeabilized cell lines to the compounds was observed. The assay was adapted from (Campos et al. (2006) Cytometry Part A. 69 (A):515-523).
(§3) Suspension cell lines SUDHL10 and SUDHL6 were grown in RPMI, washed once in 1×PBS and re-suspended at a concentration of 2e6/ml in assay buffer with 0.0025% Digitonin. Assay buffer; 300 mM Trehalose, 10 mM HEPES-KOH pH 7.7, 80 mM KCl, 1 mM EGTA, 1 mM EDTA, 0.1% BSA, 5 mM Succinate. Cells are incubated with test and control compounds at 10^6 cells/treatment for 1 hour at room temperature. Samples are fixed with 4% formaldehyde in PBS for 20 minutes, washed once in PBS, and blocked with 2% FBS/0.5% TritonX-100 in PBS. Samples are re-suspended in blocking buffer with 1:250 anti-cytochrome c conjugated to Alexa488 (BD Cat#56028) for 1 hour at 4° C., washed once with blocking buffer and re-suspended in 200 ul PBS. Cytochrome c loss was measured by microscopy. At least 100 cells per treatment were counted and scored as positive for cytochrome c loss if they lacked staining. In both methods DMSO was calculated as 0% cytochrome c loss and the Bim response for DHL6 was used to determine 100% cytochrome c loss.

[2] = tested on: SUDHL-10; experiment: In situ mitochondrial cytochrome c release assay, semi-permeabilized SUDHL-10; type: cell-based, human; conditions: 20 uM; BAX/BAK-deficient cell line
Source text: as §1, §2, §3

[3] = tested on: mitochondria from NCI 929; experiment: BH3 profiling of mitochondria isolated from NCI 929; type: cell-based; conditions: isolated mitochondria of NCI 929
Source text: As another test of the ability of BH3 profiling to detect in vivo Mcl-1 dependence, the cancer cell line NCI 929 (obtained from ATCC) is examined. Mitochondria are isolated from this cell line and exposed to the panel of BH3 peptides in Table 1 and to compounds of Formula I or Formula II. MOMP is quantitated by JC-1 fluorescence and cytochrome c release is quantitated by ELISA as described in Examples 4 and 5. NCI 929 cells are sensitive to treatment with compounds of Formula I or Formula II in vitro. […] On the other hand, treatment of the mitochondria with compounds of Formula I or Formula II induces MOMP as measured by a decrease in the red JC-1 aggregate fluorescence and as measured by an increase in cytochrome c release. This provides support that compounds of formula identified Formula I or Formula II can substitute for Noxa in the mitochondrial BH3 profiling assay and that the mitochondrial response to these compounds is a powerful predictor of what cells are sensitive to Mcl-1 inhibiting drugs in vitro and in vivo.

Compound	release of cytochrome c in SUDHL-6 [1]	release of cytochrome c in SUDHL-10 [2]	mitochondrial response to BH3 peptide [3]
O=C(Nc1cccnc1)c1cc(-c2ccco2)nc2ccc(-c3ccc4scnc4c3)cc12 [Compound 18, 6-(benzo[d]thiazol-5-yl)-2-(furan-2-yl)-N-(pyridin-3-yl)quinoline-4-carboxamide]	activity; also recorded: cause release of cytochrome c	lack of activity and not	
Bad: Bcl-xL reactive BH3 domain peptide Bad from the Table 1 panel (LWAAQRYGRELRRMSDEFEGSFKGL)			lacking a response
O=C(Nc1ccccc1)c1cc(-c2ccco2)nc2ccc(-c3ccc4scnc4c3)cc12 [Compound 33, 6-(benzo[d]thiazol-5-yl)-2-(furan-2-yl)-N-phenylquinoline-4-carboxamide]	activity; also recorded: cause release of cytochrome c	lack of activity and not	
O=C(Nc1cccnc1)c1cc(-c2cnn(C3CCCCO3)c2)nc2ccc(-c3ccccc3)cc12 (stereo not drawn) [Compound 37, 6-phenyl-N-(pyridin-3-yl)-2-(1-(tetrahydro-2H-pyran-2-yl)-1H-pyrazol-4-yl)quinoline-4-carboxamide]	activity; also recorded: cause release of cytochrome c	lack of activity and not	
O=C(Nc1cccnc1)c1cc(-c2cn[nH]c2)nc2ccc(-c3ccccc3)cc12 [Compound 38, 6-phenyl-2-(1H-pyrazol-4-yl)-N-(pyridin-3-yl)quinoline-4-carboxamide]	activity; also recorded: cause release of cytochrome c	lack of activity and not	
